Reference: patent US20090191636A1, “Method of Producing Transgenic Graminaceous Cells and Plants” (priority 2006, published 2009)

Tests used:
[1] = test system: wheat embryos derived from mature dried grain of the cultivar Bobwhite; experiment: Effect of D-amino acids on regeneration of wheat from embryos of mature dried grain (Bobwhite); type: cell-based, Triticum aestivum; conditions: for proportion (%) of explants regenerating after 3 weeks, Average / proportion (%) of explants regenerating after 3 weeks, Experiment number 1 / proportion (%) of explants regenerating after 3 weeks, Experiment number 2 / proportion (%) of explants regenerating after 3 weeks, Experiment number 3: n = 20
Procedure: (§1) A range of concentrations of the D-amino acids D-serine and D-alanine were tested for effects on wheat regeneration and germination from embryos derived from mature dried grain of the cultivar Bobwhite.

[2] = test system: wheat mature dried grain of the cultivar Bobwhite; experiment: Effect of D-amino acids on germination of wheat mature dried grain (Bobwhite); type: in vivo, Triticum aestivum; conditions: n = 15
Procedure: as §1

[3] = test system: wheat embryos derived from mature dried grain of the cultivar Ventura; experiment: Effect of D-amino acids on regeneration of wheat from embryos of mature dried grain (Ventura); type: cell-based; conditions: n = 20
[4] = test system: wheat mature dried grain of the cultivar Ventura; experiment: Effect of D-amino acids on germination of wheat mature dried grain (Ventura); type: in vivo; conditions: n = 15
Procedure: [Worded in the source for another variant; this variant is reported under the same test.] as §1

C[C@@H](N)C(=O)O [D-alanine]
proportion (%) of explants regenerating after 3 weeks, Average ([1]; 0.5 mM): 20%
proportion (%) of explants regenerating after 3 weeks, Experiment number 1 ([1]; 0.5 mM): 30%
proportion (%) of explants regenerating after 3 weeks, Experiment number 2 ([1]; 0.5 mM): 30%
proportion (%) of explants regenerating after 3 weeks, Experiment number 3 ([1]; 0.5 mM): 0%
proportion (%) of explants regenerating after 3 weeks, Average ([1]; 1 mM): 20%
proportion (%) of explants regenerating after 3 weeks, Experiment number 1 ([1]; 1 mM): 35%
proportion (%) of explants regenerating after 3 weeks, Experiment number 2 ([1]; 1 mM): 21%
proportion (%) of explants regenerating after 3 weeks, Experiment number 3 ([1]; 1 mM): 5%
proportion (%) of explants regenerating after 3 weeks, Average ([1]; 3 mM): 15%
proportion (%) of explants regenerating after 3 weeks, Experiment number 1 ([1]; 3 mM): 20%
proportion (%) of explants regenerating after 3 weeks, Experiment number 2 ([1]; 3 mM): 25%
proportion (%) of explants regenerating after 3 weeks, Experiment number 3 ([1]; 3 mM): 0%
proportion (%) of explants regenerating after 3 weeks, Average ([1]; 5 mM): 3%
proportion (%) of explants regenerating after 3 weeks, Experiment number 1 ([1]; 5 mM): 5%
proportion (%) of explants regenerating after 3 weeks, Experiment number 2 ([1]; 5 mM): 5%
proportion (%) of explants regenerating after 3 weeks, Experiment number 3 ([1]; 5 mM): 0%
proportion (%) of explants regenerating after 3 weeks, Average ([1]; 10 mM): 0%
proportion (%) of explants regenerating after 3 weeks, Experiment number 1 ([1]; 10 mM): 0%
proportion (%) of explants regenerating after 3 weeks, Experiment number 2 ([1]; 10 mM): 0%
proportion (%) of explants regenerating after 3 weeks, Experiment number 3 ([1]; 10 mM): 0%
levels that reduced the regeneration and germination of wheat plants ([1]; regeneration and germination (Tables 4 and 5)): > 5 mM
proportion (%) of explants germinated after 1 week, Average ([2]; 0.5 mM): 77%
proportion (%) of explants germinated after 1 week, Experiment Number 1 ([2]; 0.5 mM): 55%
proportion (%) of explants germinated after 1 week, Experiment Number 2 ([2]; 0.5 mM): 75%
proportion (%) of explants germinated after 1 week, Experiment Number 3 ([2]; 0.5 mM): 100%
proportion (%) of explants germinated after 1 week, Average ([2]; 1 mM): 77%
proportion (%) of explants germinated after 1 week, Experiment Number 1 ([2]; 1 mM): 70%
proportion (%) of explants germinated after 1 week, Experiment Number 2 ([2]; 1 mM): 80%
proportion (%) of explants germinated after 1 week, Experiment Number 3 ([2]; 1 mM): 80%
proportion (%) of explants germinated after 1 week, Average ([2]; 3 mM): 73%
proportion (%) of explants germinated after 1 week, Experiment Number 1 ([2]; 3 mM): 70%
proportion (%) of explants germinated after 1 week, Experiment Number 2 ([2]; 3 mM): 70%
proportion (%) of explants germinated after 1 week, Experiment Number 3 ([2]; 3 mM): 80%
proportion (%) of explants germinated after 1 week, Average ([2]; 5 mM): 62%
proportion (%) of explants germinated after 1 week, Experiment Number 1 ([2]; 5 mM): 50%
proportion (%) of explants germinated after 1 week, Experiment Number 2 ([2]; 5 mM): 85%
proportion (%) of explants germinated after 1 week, Experiment Number 3 ([2]; 5 mM): 50%
proportion (%) of explants germinated after 1 week, Average ([2]; 10 mM): 28%
proportion (%) of explants germinated after 1 week, Experiment Number 1 ([2]; 10 mM): 10%
proportion (%) of explants germinated after 1 week, Experiment Number 2 ([2]; 10 mM): 35%
proportion (%) of explants germinated after 1 week, Experiment Number 3 ([2]; 10 mM): 40%
proportion (%) of explants regenerating after 3 weeks, Average ([3]; 0.5 mM): 8%
proportion (%) of explants regenerating after 3 weeks, Experiment number 1 ([3]; 0.5 mM): 10%
proportion (%) of explants regenerating after 3 weeks, Experiment number 2 ([3]; 0.5 mM): 10%
proportion (%) of explants regenerating after 3 weeks, Experiment number 3 ([3]; 0.5 mM): 5%
proportion (%) of explants regenerating after 3 weeks, Average ([3]; 1 mM): 5%
proportion (%) of explants regenerating after 3 weeks, Experiment number 1 ([3]; 1 mM): 0%
proportion (%) of explants regenerating after 3 weeks, Experiment number 2 ([3]; 1 mM): 10%
proportion (%) of explants regenerating after 3 weeks, Experiment number 3 ([3]; 1 mM): 5%
proportion (%) of explants regenerating after 3 weeks, Average ([3]; 3 mM): 7%
proportion (%) of explants regenerating after 3 weeks, Experiment number 1 ([3]; 3 mM): 10%
proportion (%) of explants regenerating after 3 weeks, Experiment number 2 ([3]; 3 mM): 10%
proportion (%) of explants regenerating after 3 weeks, Experiment number 3 ([3]; 3 mM): 0%
proportion (%) of explants regenerating after 3 weeks, Average ([3]; 5 mM): 3%
proportion (%) of explants regenerating after 3 weeks, Experiment number 1 ([3]; 5 mM): 5%
proportion (%) of explants regenerating after 3 weeks, Experiment number 2 ([3]; 5 mM): 5%
proportion (%) of explants regenerating after 3 weeks, Experiment number 3 ([3]; 5 mM): 0%
proportion (%) of explants regenerating after 3 weeks, Average ([3]; 10 mM): 0%
proportion (%) of explants regenerating after 3 weeks, Experiment number 1 ([3]; 10 mM): 0%
proportion (%) of explants regenerating after 3 weeks, Experiment number 2 ([3]; 10 mM): 0%
proportion (%) of explants regenerating after 3 weeks, Experiment number 3 ([3]; 10 mM): 0%
proportion (%) of explants regenerating after 3 weeks, Average ([3]; 20 mM): 0%
proportion (%) of explants regenerating after 3 weeks, Experiment number 1 ([3]; 20 mM): 0%
proportion (%) of explants regenerating after 3 weeks, Experiment number 2 ([3]; 20 mM): 0%
proportion (%) of explants regenerating after 3 weeks, Experiment number 3 ([3]; 20 mM): 0%
germination: proportion (%) of explants regenerating after 1 week, Average ([4]; 0.5 mM): 73%
germination: proportion (%) of explants regenerating after 1 week, Experiment number 1 ([4]; 0.5 mM): 65%
germination: proportion (%) of explants regenerating after 1 week, Experiment number 2 ([4]; 0.5 mM): 65%
germination: proportion (%) of explants regenerating after 1 week, Experiment number 3 ([4]; 0.5 mM): 90%
germination: proportion (%) of explants regenerating after 1 week, Average ([4]; 1 mM): 75%
germination: proportion (%) of explants regenerating after 1 week, Experiment number 1 ([4]; 1 mM): 75%
germination: proportion (%) of explants regenerating after 1 week, Experiment number 2 ([4]; 1 mM): 75%
germination: proportion (%) of explants regenerating after 1 week, Experiment number 3 ([4]; 1 mM): 75%
germination: proportion (%) of explants regenerating after 1 week, Average ([4]; 3 mM): 75%
germination: proportion (%) of explants regenerating after 1 week, Experiment number 1 ([4]; 3 mM): 80%
germination: proportion (%) of explants regenerating after 1 week, Experiment number 2 ([4]; 3 mM): 65%
germination: proportion (%) of explants regenerating after 1 week, Experiment number 3 ([4]; 3 mM): 80%
germination: proportion (%) of explants regenerating after 1 week, Average ([4]; 5 mM): 67%
germination: proportion (%) of explants regenerating after 1 week, Experiment number 1 ([4]; 5 mM): 70%
germination: proportion (%) of explants regenerating after 1 week, Experiment number 2 ([4]; 5 mM): 55%
germination: proportion (%) of explants regenerating after 1 week, Experiment number 3 ([4]; 5 mM): 75%
germination: proportion (%) of explants regenerating after 1 week, Average ([4]; 10 mM): 47%
germination: proportion (%) of explants regenerating after 1 week, Experiment number 1 ([4]; 10 mM): 65%
germination: proportion (%) of explants regenerating after 1 week, Experiment number 2 ([4]; 10 mM): 30%
germination: proportion (%) of explants regenerating after 1 week, Experiment number 3 ([4]; 10 mM): 45%
germination: proportion (%) of explants regenerating after 1 week, Average ([4]; 20 mM): 5%
germination: proportion (%) of explants regenerating after 1 week, Experiment number 1 ([4]; 20 mM): 5%
germination: proportion (%) of explants regenerating after 1 week, Experiment number 2 ([4]; 20 mM): 25%
germination: proportion (%) of explants regenerating after 1 week, Experiment number 3 ([4]; 20 mM): 40%
